IC50 and inhibition in vivo data for 14 molecules are collected here from patent publication US20190169181A1, “FUMAGILLOL COMPOUNDS AND METHODS OF MAKING AND USING SAME” (Zafgen, Inc., priority 2016, published 2019).

Structures can show the parent of a compound that is named as a salt.

One assay concerns the target T1, recombinant human MetAP2 (Homo sapiens, UniProt P50579).
T1 construct: Flag; made in house
Put plainly: Recombinant human MetAP2 enzyme inhibition assay (MAS peptide / amino acid oxidase / Amplex Ultrared readout). Format: biochemical. The settings on record: Flag tagged human recombinant MetAP2, 25 minutes at 25° C. On the procedure: Compounds are tested for their capacity to inhibit recombinant human MetAP2 activity using the following assay.
Flag tagged Human recombinant MetAP2 expressed and isolated for use as the enzyme source. 10 mM stock solutions of compounds were prepared in 100% DMSO and further diluted in 100% DMSO required concentration to 1 mM stocks. The stock compound solutions and DMSO vehicle controls were diluted to target final compound concentrations using assay buffer to a final concentration of 50 mM HEPES containing 100 mM NaCl, pH adjusted to 7.5. The MAS peptide was formulated to a 7.5 mM stock in distilled water and prior to use further diluted 1:4. […] 40 μl of enzyme was mixed with 100 μl of MnCl2 then further diluted in assay buffer to a final concentration of 16 μg/ml. To test for compound effect on MetAP2 enzyme activity, 5 μl of test compound, 10 μl of MAS substrate/amino acid oxidase mixture, 10 μl of MetAP2 was added to test wells in a 384 well black plate with blank wells containing no enzyme, replaced with 10 μl of assay buffer. All compounds were tested in duplicate on two occasions on the same day.
The plate was sealed with a TopSeal A cover and mixed briefly on an orbital mixer at 900 rpm. The plate was incubated for a further 25 minutes at 25° C. A 5× stock of Amplex buffer was prepared (0.25 M sodium phosphate, pH 7.4) and stored at 4° C. […] Horse radish peroxidase was diluted in […] of Amplex buffer, 100 μl of this was combined with 50 μl of Amplex Ultrared in […] of 1× Amplex buffer to generate sufficient detection reagent for a 384 well plate. 25 μl detection reagent was added to each well of the test plate, which was re-sealed and mixed briefly on an orbital shaker. The plate was transferred to an Envision Multi-label reader and RFU measured corresponding to excitation 531 nm and emission 595 nm. At the end of the MetAP2 incubation 25 μl Amplex/HRP mixture per well was added and the plate read plate on a plate reader.

Assay [1] concerns Diet Induced Obese (DIO) C57BL/6 mice. The assay can be described thus: 10 day DIO mouse model, weight loss vs. vehicle. It is filed as in vivo. The conditions noted are these: 240 h; for inhibition in vivo at 0.3 mg/kg: 0.3 mpk sc once a day for 10 days; for inhibition in vivo at 1 mg/kg: 1.0 mpk sc once a day for 10 days. From the text: The objective of this study design was to investigate the efficacy of disclosed compounds in a 10 day DIO mouse model. Effects on body weight, food intake, hematology and blood chemistry were the primary readouts of this study design. Male, Diet Induced Obese (DIO) C57BL/6 mice, 19-21 weeks of age (13-15 weeks on high fat diet) were ordered from a certified vendor and upon receipt were housed on irradiated corncob bedding in micro-isolator cages on a 12-hour light-dark cycle (0700-1900) at 68-74° F. and 30-70% humidity. Mice were fed Research Diets D12492 (60% Kcal fat, 20% Kcal carbohydrate and 20% protein) and provided water ad libitum. DIO mice were received and housed in the facility for approximately two weeks prior to the start of test article administration. On Day −4 or −3, mice were randomized into study groups based on body weight and body weights were continued to be recorded daily for the duration of the study. Daily food intake was assessed starting on Study Day −2 by weighing of the food with hopper together to avoid loss of food in transfer.
Compounds were formulated into a 100% DMSO stock (at 9 mg/mL) prior to the start, and further diluted into the target working concentration using the vehicle of 10% DMSO in water. Prior to test article administration, starting on Day −3 a dosing acclimation occurred with all animals receiving a subcutaneous injection of vehicle (10% DMSO) only for 3 days. Starting on Day 1, test compounds or vehicle were administered based on individual body weight, subcutaneously, once a day for 10 days. All mice were sacrificed on Day 11, 24 hours following the final dosing on Day 10. After sacrifice, whole blood was collected and analyzed for hematology and blood chemistry parameters.
Compounds were tested for weight loss vs. vehicle at 0.3 and 1.0 mpk sc (mg per kg animal weight delivered subcutaneously), and the results are shown in Table 2 below.

T1 sequence (P50579 whole entry): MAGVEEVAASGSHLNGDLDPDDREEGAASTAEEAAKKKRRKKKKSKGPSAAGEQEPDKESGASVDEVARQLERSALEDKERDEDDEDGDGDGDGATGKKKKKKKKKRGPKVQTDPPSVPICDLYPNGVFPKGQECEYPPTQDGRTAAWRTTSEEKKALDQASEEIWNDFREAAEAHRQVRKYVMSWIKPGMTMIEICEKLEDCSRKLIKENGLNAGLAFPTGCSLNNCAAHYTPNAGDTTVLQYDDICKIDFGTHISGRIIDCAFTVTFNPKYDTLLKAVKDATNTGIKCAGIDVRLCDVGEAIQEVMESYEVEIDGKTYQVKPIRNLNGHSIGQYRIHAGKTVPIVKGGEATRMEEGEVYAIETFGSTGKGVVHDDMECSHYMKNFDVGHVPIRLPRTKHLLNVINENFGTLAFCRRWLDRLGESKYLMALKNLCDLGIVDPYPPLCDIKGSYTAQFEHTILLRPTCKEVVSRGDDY

Regarding `CO[C@@H]1[C@H](OC(=O)N[C@H](c2cn(C[C@@H]3CCN(CC(F)F)C3)cn2)C(C)C)CC[C@]2(CO2)[C@H]1[C@@]1(C)O[C@@H]1CC=C(C)C` [Example 19, (3R,4S,5S,6R)-5-methoxy-4-((2R,3R)-2-methyl-3-(3-methylbut-2-enyl)oxiran-2-yl)-1-oxaspiro[2.5]octan-6-yl (S)-1-(1-(((R)-1-(2,2-difluoroethyl)pyrrolidin-3-yl)methyl)-1H-imidazol-4-yl)-2-methylpropylcarbamate], on recombinant human MetAP2, the half-inhibitory concentration (IC50) lay in the range of 50 to 500 nM. In addition, in assay [1], at 0.3 mg/kg the inhibition in vivo was 1.9%.

In the case of `CO[C@@H]1[C@H](OC(=O)N[C@H](c2cc(=O)cc[nH]2)C(C)C)CC[C@]2(CO2)[C@H]1[C@@]1(C)O[C@@H]1CC=C(C)C` [Example 20, (3R,4S,5S,6R)-5-methoxy-4-((2R,3R)-2-methyl-3-(3-methylbut-2-enyl)oxiran-2-yl)-1-oxaspiro[2.5]octan-6-yl (S)-2-methyl-1-(4-oxo-1,4-dihydropyridin-2-yl)propylcarbamate], the half-maximal inhibitory concentration (IC50) on recombinant human MetAP2 was below 50 nM. In assay [1], this molecule showed an inhibition in vivo at 0.3 mg/kg of 3.4% and an inhibition in vivo at 1 mg/kg of 3.3%.

Regarding `CO[C@@H]1[C@H](OC(=O)N[C@H](c2cnn(C[C@H]3CCN(C)C3)c2)C(C)C)CC[C@]2(CO2)[C@H]1[C@@]1(C)O[C@@H]1CC=C(C)C` [Example 22, (3R,4S,5S,6R)-5-methoxy-4-((2R,3R)-2-methyl-3-(3-methylbut-2-enyl)oxiran-2-yl)-1-oxaspiro[2.5]octan-6-yl (S)-2-methyl-1-(1-(((S)-1-methylpyrrolidin-3-yl)methyl)-1H-pyrazol-4-yl)propylcarbamate formate], on recombinant human MetAP2, the 50% inhibitory concentration (IC50) is 50 to 500 nM. At 0.3 mg/kg the inhibition in vivo in assay [1] was 4.7%.

In the case of `CO[C@@H]1[C@H](OC(=O)N[C@H](c2cnn(C[C@@H]3CCN(C)C3)c2)C(C)C)CC[C@]2(CO2)[C@H]1[C@@]1(C)O[C@@H]1CC=C(C)C` [Example 23, (3R,4S,5S,6R)-5-methoxy-4-((2R,3R)-2-methyl-3-(3-methylbut-2-enyl)oxiran-2-yl)-1-oxaspiro[2.5]octan-6-yl (S)-2-methyl-1-(1-(((R)-1-methylpyrrolidin-3-yl)methyl)-1H-pyrazol-4-yl)propylcarbamate], the IC50 on recombinant human MetAP2 lay within 50 to 500 nM. The inhibition in vivo at 0.3 mg/kg in assay [1] came to 5.1%.

For the molecule `CO[C@@H]1[C@H](OC(=O)N[C@H](c2cn(C[C@H]3CCN(C)C3)c(C)n2)C(C)C)CC[C@]2(CO2)[C@H]1[C@@]1(C)O[C@@H]1CC=C(C)C` [Example 24, (3R,4S,5S,6R)-5-methoxy-4-((2R,3R)-2-methyl-3-(3-methylbut-2-enyl)oxiran-2-yl)-1-oxaspiro[2.5]octan-6-yl (S)-2-methyl-1-(2-methyl-1-(((S)-1-methylpyrrolidin-3-yl)methyl)-1H-imidazol-4-yl)propylcarbamate], the half-inhibitory concentration (IC50) at recombinant human MetAP2 was 50 to 500 nM. This molecule yielded an inhibition in vivo at 0.3 mg/kg in assay [1] of 8.2%.

For `CO[C@@H]1[C@H](OC(=O)N[C@H](c2ccc(N3CC(F)(F)C3)nc2)C(C)C)CC[C@]2(CO2)[C@H]1[C@@]1(C)O[C@@H]1CC=C(C)C` [Example 25, (3R,4S,5S,6R)-5-methoxy-4-((2R,3R)-2-methyl-3-(3-methylbut-2-enyl)oxiran-2-yl)-1-oxaspiro[2.5]octan-6-yl (S)-1-(6-(3,3-difluoroazetidin-1-yl)pyridin-3-yl)-2-methylpropylcarbamate], at recombinant human MetAP2, the half-maximal inhibitory concentration (IC50) lay within 50 to 500 nM. In assay [1], this molecule came in with an inhibition in vivo at 0.3 mg/kg of 13%.

As to `CO[C@@H]1[C@H](OC(=O)N[C@H](c2ccc(N3CCOCC3)nc2)C(C)C)CC[C@]2(CO2)[C@H]1[C@@]1(C)O[C@@H]1CC=C(C)C` [Example 26, (3R,4S,5S,6R)-5-methoxy-4-((2R,3R)-2-methyl-3-(3-methylbut-2-enyl)oxiran-2-yl)-1-oxaspiro[2.5]octan-6-yl (S)-2-methyl-1-(6-morpholinopyridin-3-yl)propylcarbamate], the IC50 on recombinant human MetAP2 lay within 50 to 500 nM. In assay [1], this molecule displayed an inhibition in vivo at 0.3 mg/kg of 7.2%.

With `CC[C@@H](Cc1noc(=O)[nH]1)NC(=O)O[C@@H]1CC[C@]2(CO2)[C@@H]([C@@]2(C)O[C@@H]2CC=C(C)C)[C@@H]1OC` [Example 29, (3R,4S,5S,6R)-5-methoxy-4-((2R,3R)-2-methyl-3-(3-methylbut-2-enyl)oxiran-2-yl)-1-oxaspiro[2.5]octan-6-yl (S)-1-(5-oxo-4,5-dihydro-1,2,4-oxadiazol-3-yl)butan-2-ylcarbamate], the 50% inhibitory concentration (IC50) at recombinant human MetAP2 was below 50 nM. In assay [1], this molecule registered an inhibition in vivo at 1 mg/kg of 3.6%.

Regarding `CO[C@@H]1[C@H](OC(=O)N[C@H](Cc2nnc[nH]2)C(C)C)CC[C@]2(CO2)[C@H]1[C@@]1(C)O[C@@H]1CC=C(C)C` [Example 31, (3R,4S,5S,6R)-5-methoxy-4-((2R,3R)-2-methyl-3-(3-methylbut-2-enyl)oxiran-2-yl)-1-oxaspiro[2.5]octan-6-yl (R)-3-methyl-1-(4H-1,2,4-triazol-3-yl)butan-2-ylcarbamate], on recombinant human MetAP2, the concentration for half-maximal inhibition (IC50) was below 50 nM. Further, in assay [1], at 0.3 mg/kg the inhibition in vivo was 2.4% and 1 mg/kg produced 2.5% inhibition in vivo.

Regarding `CO[C@@H]1[C@H](OC(=O)N[C@H](Cc2nnc(N)o2)C(C)C)CC[C@]2(CO2)[C@H]1[C@@]1(C)O[C@@H]1CC=C(C)C` [Example 32, (3R,4S,5S,6R)-5-methoxy-4-((2R,3R)-2-methyl-3-(3-methylbut-2-enyl)oxiran-2-yl)-1-oxaspiro[2.5]octan-6-yl (R)-1-(5-amino-1,3,4-oxadiazol-2-yl)-3-methylbutan-2-ylcarbamate], the IC50 on recombinant human MetAP2 was below 50 nM. Besides, in assay [1], the inhibition in vivo at 0.3 mg/kg came to 3.9% and testing at 1 mg/kg gave an inhibition in vivo of 0.8%.

`CNc1nnc(C[C@@H](NC(=O)O[C@@H]2CC[C@]3(CO3)[C@@H]([C@@]3(C)O[C@@H]3CC=C(C)C)[C@@H]2OC)C(C)C)o1` [Example 33, (3R,4S,5S,6R)-5-methoxy-4-((2R,3R)-2-methyl-3-(3-methylbut-2-enyl)oxiran-2-yl)-1-oxaspiro[2.5]octan-6-yl (R)-3-methyl-1-(5-(methylamino)-1,3,4-oxadiazol-2-yl)butan-2-ylcarbamate]: the IC50 at recombinant human MetAP2 was 50 to 500 nM. In assay [1], the inhibition in vivo at 0.3 mg/kg stood at 3.7% and the inhibition in vivo at 1 mg/kg is 1%.

With `CNc1nnc(C[C@H](NC(=O)O[C@@H]2CC[C@]3(CO3)[C@@H]([C@@]3(C)O[C@@H]3CC=C(C)C)[C@@H]2OC)C(C)C)s1` [Example 34, (3R,4S,5S,6R)-5-methoxy-4-((2R,3R)-2-methyl-3-(3-methylbut-2-enyl)oxiran-2-yl)-1-oxaspiro[2.5]octan-6-yl (S)-3-methyl-1-(5-(methylamino)-1,3,4-thiadiazol-2-yl)butan-2-ylcarbamate], the concentration for half-maximal inhibition (IC50) at recombinant human MetAP2 lay within 50 to 500 nM. The inhibition in vivo at 0.3 mg/kg in assay [1] is 3.4%.

For `CNc1nnc(C[C@@H](NC(=O)O[C@@H]2CC[C@]3(CO3)[C@@H]([C@@]3(C)O[C@@H]3CC=C(C)C)[C@@H]2OC)C(C)C)s1` [Example 35, (3R,4S,5S,6R)-5-methoxy-4-((2R,3R)-2-methyl-3-(3-methylbut-2-enyl)oxiran-2-yl)-1-oxaspiro[2.5]octan-6-yl (R)-3-methyl-1-(5-(methylamino)-1,3,4-thiadiazol-2-yl)butan-2-ylcarbamate], the IC50 on recombinant human MetAP2 lay within 50 to 500 nM. In assay [1], 1 mg/kg produced 1% inhibition in vivo.

Consider `CO[C@@H]1[C@H](OC(=O)N[C@H](Cc2nnc(N)s2)C(C)C)CC[C@]2(CO2)[C@H]1[C@@]1(C)O[C@@H]1CC=C(C)C` [Example 36, (3R,4S,5S,6R)-5-methoxy-4-((2R,3R)-2-methyl-3-(3-methylbut-2-en-1-yl)oxiran-2-yl)-1-oxaspiro[2.5]octan-6-yl ((R)-1-(5-amino-1,3,4-thiadiazol-2-yl)-3-methylbutan-2-yl)carbamate], for which, at recombinant human MetAP2, the half-maximal inhibitory concentration (IC50) is 50 to 500 nM. The molecule further displayed an inhibition in vivo at 1 mg/kg in assay [1] of 2%.

For orientation: IC50 means the point on the concentration scale where inhibition reaches its midpoint. The inhibition in vivo is the drop in the measured response relative to a control, in per cent. The low end stands for a response near the control, the high end for a response far below the control.
